In US12343350B2, “Istaroxime-containing intravenous formulation for the treatment of acute heart failure (AHF)” (Windtree Therapeutics, Inc., priority 2019, dated 2025):
Marks after values point to notes of the source that are not given here.

Experiments:
[1] = test system: mouse (Albino Swiss CD-1); assay: Acute toxicity (LD50) in mouse; format: in vivo; details: single administration
Experimental: Acute toxicity has been determined in the mouse (Albino Swiss CD-1, body weight 30 g). Mice were orally treated, or intravenously injected, with single administration of increasing doses of the test substance to identify the dose causing 50% mortality. Mortality occurred within 30 min after the administration and survival after 24 h. The acute toxicity (LD50) was then assessed.
The acute toxicity of the tested compound PST 3093 was determined in the mouse (Albino Swiss CD-1, body weight 30 g). Compound PST 3093 was orally administered or intravenously injected at increasing doses to identify the dose causing 50% mortality. Mortality occurred within 30 min after the administration and survival after 24 h.

[2] = test system: STZ diabetic rats; assay: Haemodynamics in streptozotocin (STZ) diabetic rats (echocardiography 2M-Doppler-Tissue Doppler); format: in vivo, rat
Experimental: Sprague Dawley male rats (150-175 g) were made diabetic by a single injection into the tail vein of a solution of streptozotocin (STZ, 50 mg/kg, Sigma-Aldrich), freshly prepared in 0.1 M sodium citrate buffer, pH 4.5. Control rats received citrate buffer. Fasting glycaemia was measured after 1 week and rats with values greater than 400 mg/dl were considered diabetic.
Eight to nine weeks after STZ injection, rats were submitted to transthoracic echocardiographic and Doppler evaluation performed under pentobarbital anesthesia. Two-dimensionally guided M-mode recordings were used to obtain short-axis measurements of left ventricular end-diastolic diameter (LVEDD), left ventricular end-systolic diameter (LVESD), posterior (PW) and septal (SW) diastolic wall thickness according to the American Society of Echocardiography guidelines (Lang R M et al., Eur J Echocardiography 2006; 7:79-108). Fractional shortening was calculated as FS=(LVEDD-LVESD)/LVEDD. Relative wall thickness was calculated as PWTd+IVSTd/LVEDD.
Mitral inflow was measured by pulsed Doppler at the tips of mitral leaflets from an apical 4-chamber view to obtain early and late filling velocities (E, A) and deceleration time of early filling velocity (DT). The deceleration slope was calculated as E/DT ratio. The mitral deceleration index was calculated as DT/E ratio.
Tissue Doppler Imaging (TDI) was evaluated from the apical 4-chamber view to record septal mitral annular movements, i.e., peak myocardial systolic (s′) and early and late diastolic velocity (e′ and a′).
The compound PST 3093 was iv administered to STZ injected rats at the dose of 0.22 mg/kg and echocardiographic parameters were measured after 15 and 30 min from the beginning of iv infusion and 10 min after interruption of infusion.

[3] = target: SERCA2a (Canis lupus familiaris (Dog) (Canis familiaris), UniProt O46674); assay: SERCA2a ATPase activity in SR preparations from failing dog; format: biochemical; details: data not shown
Chain of SERCA2a (O46674 whole entry): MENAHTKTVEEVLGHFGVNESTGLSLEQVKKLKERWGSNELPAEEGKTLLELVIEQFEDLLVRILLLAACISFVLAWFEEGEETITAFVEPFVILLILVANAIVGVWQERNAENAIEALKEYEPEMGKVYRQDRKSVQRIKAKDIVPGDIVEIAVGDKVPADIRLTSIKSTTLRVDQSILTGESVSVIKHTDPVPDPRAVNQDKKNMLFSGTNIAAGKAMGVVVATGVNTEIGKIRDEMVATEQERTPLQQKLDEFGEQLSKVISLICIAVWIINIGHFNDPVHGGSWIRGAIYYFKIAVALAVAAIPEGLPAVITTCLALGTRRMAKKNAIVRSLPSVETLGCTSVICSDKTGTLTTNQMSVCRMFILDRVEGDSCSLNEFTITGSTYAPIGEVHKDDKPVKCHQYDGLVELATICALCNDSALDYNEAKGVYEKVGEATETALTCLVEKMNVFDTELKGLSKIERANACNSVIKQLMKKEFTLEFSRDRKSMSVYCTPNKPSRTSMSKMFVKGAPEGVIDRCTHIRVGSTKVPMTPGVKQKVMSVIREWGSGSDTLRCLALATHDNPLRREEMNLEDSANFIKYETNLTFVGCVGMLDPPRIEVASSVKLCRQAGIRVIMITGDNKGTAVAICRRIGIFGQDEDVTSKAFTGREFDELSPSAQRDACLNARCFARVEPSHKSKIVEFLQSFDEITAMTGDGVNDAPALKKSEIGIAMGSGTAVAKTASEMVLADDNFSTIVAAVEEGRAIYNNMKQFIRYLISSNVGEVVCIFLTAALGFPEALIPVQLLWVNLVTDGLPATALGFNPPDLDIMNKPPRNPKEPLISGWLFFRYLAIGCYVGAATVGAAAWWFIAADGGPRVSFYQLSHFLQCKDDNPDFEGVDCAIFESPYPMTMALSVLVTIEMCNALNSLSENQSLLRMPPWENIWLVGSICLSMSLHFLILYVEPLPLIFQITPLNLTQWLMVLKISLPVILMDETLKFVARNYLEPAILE
Experimental: Male beagle dogs were used for obtaining cardiac tissues for SERCA2a-enriched sarcoplasmic reticulum preparations. Healthy dogs were utilized for obtaining the data in Table 3. Chronic heart failure was induced in dogs by multiple intracoronary microembolizations with polystyrene latex microspheres ([…], Polysciences, Warrington, PA, USA) as described previously (see Sabbah H N et al., Am J Physiol. 1991; 260:H1379-84). The experiments were conducted in the General Pharmacology Department of Sigma-Tau, Rome, Italy. […]
SERCA2a activity was measured in vitro as ^32P-ATP hydrolysis at different Ca2^+ concentrations (100 to 3000 nM) in the absence and presence of the tested compounds as described previously (see Micheletti R. et al., Am J Card 2007; 99:24A-32A). […] The ATP hydrolysis was continued for 15 min at 37° C. and was stopped by acidification with 100 μl of 20% v/v ice-cold perchloric acid. ^32P was separated by centrifugation with activated charcoal (Norit A, SERVA) and the radioactivity was measured. […]
Dose-response curves were fitted by using a sigmoidal curve fitting software and the maximal velocity (Vmax) activity and the Kd Ca2^+ were calculated (Synergy Software KaleidaGraph 3.6). […]

[4] = after 10 min from STOP infusion

## C[C@]12CCC(=NOCC(=O)O)CC1[C@H](O)CC1C2CC[C@]2(C)C(=O)CCC12 (stereo partly drawn) [PST 3093, (E,Z)-[(6-beta-hydroxy-17-oxoandrostan-3-ylidene)amino]oxyacetic acid]
[1]; i.v.
  LD50: >250 mg/kg
[1]; os (oral)
  LD50: >200 mg/kg
[2]; 0.22 mg/kg iv, after 15 min
  CO, cardiac output: 231.7 ± 64 mL/min
  DT, deceleration time of E wave: 40.2 ± 9.54 ms
  DT/E, mitral deceleration index: 40.39 ± 15.04* s^2/m
  E, E wave, early filling velocity of mitral inflow: 1.048 ± 0.218
  E/DT, decelaration slope: 27.51 ± 8.42 m/s^2
  E/e′, index of LV filling pressure: 38.61 ± 4.71
  HR, heart rate: 271 ± 33 beat/min
  SV, stroke volume: 0.85 ± 0.18 ml/beat
  e′ TDI, early relaxation velocity: 27.01 ± 3.4 cm/s
[2]; 0.22 mg/kg iv, after 30 min
  CO, cardiac output: 230.6 ± 46.7 mL/min
  DT, deceleration time of E wave: 36.6 ± 6.09 ms
  DT/E, mitral deceleration index: 35.47 ± 10.19* s^2/m
  E, E wave, early filling velocity of mitral inflow: 1.076 ± 0.211
  E/DT, decelaration slope: 30.36 ± 8.73 m/s^2
  E/e′, index of LV filling pressure: 38.7 ± 4.26
  HR, heart rate: 269 ± 29 beat/min
  SV, stroke volume: 0.86 ± 0.14 ml/beat
  e′ TDI, early relaxation velocity: 27.77 ± 4.27 cm/s
[2]; [4]
  CO, cardiac output: 200.88 ± 51.7 mL/min
  DT, deceleration time of E wave: 41.88 ± 7.86 ms
  DT/E, mitral deceleration index: 49.08 ± 13.09* s^2/m
  E, E wave, early filling velocity of mitral inflow: 0.89 ± 0.19
  E/DT, decelaration slope: 22.36 ± 8.89 m/s^2
  E/e′, index of LV filling pressure: 39.45 ± 4.18
  HR, heart rate: 249 ± 28 beat/min
  SV, stroke volume: 0.81 ± 0.17 ml/beat
  e′ TDI, early relaxation velocity: 22.48 ± 3.35 cm/s

## C[C@]12CCC(=NOCCN)C[C@@H]1C(=O)C[C@@H]1[C@@H]2CC[C@]2(C)C(=O)CC[C@@H]12 [Istaroxime, (3Z,5a)-3-[(2-aminoethoxy)imino]androstane-6,17-dione]
[3]
  SERCA2a activation: particularly evident
